Converted amounts (≈) assume the structure as drawn.
How the values were obtained:
Assay type in all cases: cell-based
[1] = tested on: Staphylococcus epidermidis ATCC 12228; assay: MIC, two-fold dilution method, Staphylococcus epidermidis ATCC 12228; conditions: 10^6 CFU per ml, 37° C., 18 to 20 hours; for MIC: ATCC12228, Muller Hinton Broth, read-out: Antibacterial Activity (MIC)
Procedure: (§1) In order to illustrate the usefulness of the invented compounds, the minimal inhibitory concentrations-(MIC) thereof against standard strains were determined and compared with Cefotaxime, a known compound. Also, the in vitro antibacterial activity was determined by a two-fold dilution method as described below: That is, the two-fold serial dilutions of the compound were made and dispersed in Muller Hinton Broth medium. Standard test strain which had the 10^6 CFU per ml was inoculated on the medium, and was incubated at 37° C. for 18 to 20 hours.

[2] = tested on: Bacillus subtilis ATCC 6633; assay: MIC, two-fold dilution method, Bacillus subtilis ATCC 6633; conditions: 10^6 CFU per ml, 37° C., 18 to 20 hours; for MIC: ATCC6633, Muller Hinton Broth, read-out: Antibacterial Activity (MIC)
Procedure: as §1

[3] = tested on: Klebsiella pneumoniae ATCC 10031; assay: MIC, two-fold dilution method, Klebsiella pneumoniae ATCC 10031; conditions: 10^6 CFU per ml, 37° C., 18 to 20 hours; for MIC: ATCC10031, Muller Hinton Broth, read-out: Antibacterial Activity (MIC)
Procedure: as §1

[4] = tested on: Streptococcus faecalis ATCC 10541; assay: MIC, two-fold dilution method, Streptococcus faecalis ATCC 10541; conditions: 10^6 CFU per ml, 37° C., 18 to 20 hours; for MIC: Enterococcus faecalis, ATCC10541, Muller Hinton Broth, read-out: Antibacterial Activity (MIC)
Procedure: as §1

[5] = tested on: Esherichia coli ATCC 25922; assay: MIC, two-fold dilution method, Esherichia coli ATCC 25922; conditions: Muller Hinton Broth, 10^6 CFU per ml, 37° C., 18 to 20 hours; for MIC: read-out: Antibacterial Activity (MIC)
Procedure: as §1

[6] = tested on: Staphylococcus aureus ATCC 65389; assay: MIC, two-fold dilution method, Staphylococcus aureus ATCC 65389; conditions: 10^6 CFU per ml, 37° C., 18 to 20 hours; for MIC: ATCC65389, Muller Hinton Broth, read-out: Antibacterial Activity (MIC)
Procedure: as §1

[7] = tested on: Pseudomonas aeurginosa NCTC 10490; assay: MIC, two-fold dilution method, Pseudomonas aeurginosa NCTC 10490; conditions: 10^6 CFU per ml, 37° C., 18 to 20 hours; for MIC: NCTC10490, Muller Hinton Broth, read-out: Antibacterial Activity (MIC)
Procedure: as §1

SMILES	MIC [1] [µg/mL]	MIC [2] [µg/mL]	MIC [3] [µg/mL]	MIC [4] [µg/mL]	MIC [5] [µg/mL]	MIC [6] [µg/mL]	MIC [7] [µg/mL]	Antibacterial Activity (MIC) ([1]; Muller Hinton Broth) [µg/mL]	Antibacterial Activity (MIC) ([2]; Muller Hinton Broth) [µg/mL]	Antibacterial Activity (MIC) ([3]; Muller Hinton Broth) [µg/mL]	Antibacterial Activity (MIC) ([4]; Muller Hinton Broth) [µg/mL]	Antibacterial Activity (MIC) [5] [µg/mL]	Antibacterial Activity (MIC) ([6]; Muller Hinton Broth) [µg/mL]	Antibacterial Activity (MIC) ([7]; Muller Hinton Broth) [µg/mL]
C=CCO/N=C(\C(=O)NC1C(=O)N2C(C(=O)[O-])=C(CSc3cc[n+](C)c4cc(N5CCN(CC)CC5)c(F)cc34)CSC12)c1csc(N)n1 (stereo not shown) [Compound I-23, 7-[(Z)-2-(2-aminothiazol-4-yl)-2-(allyloxyimino)acetamido]-3-[1-methyl-6-fluoro-7-(1-ethylpiperazinyl)quinolinium-4-yl]thiomethyl-3-cephem-4-carboxylate]	0.1 (≈ 0.138 µM)	0.2 (≈ 0.275 µM)	0.2 (≈ 0.275 µM)	0.2 (≈ 0.275 µM)	1.56 (≈ 2.15 µM)	0.1 (≈ 0.138 µM)	1.56 (≈ 2.15 µM)	–	–	–	–	–	–	–
C=CCO/N=C(\C(=O)NC1C(=O)N2C(C(=O)[O-])=C(CSc3cc[n+](C4CC4)c4cc(N5CCN(C)CC5)c(F)cc34)CSC12)c1csc(N)n1 (stereo not shown) [Compound I-26, 7-[(Z)-2-(2-aminothiazol-4-yl)-2-(allyloxyimino)acetamido]-3-[1-cyclopropyl-6-fluoro-7-(N-methylpiperazinyl)quinolinium-4-yl]thiomethyl-3-cephem-4-carboxylate]	1.56 (≈ 2.11 µM)	0.1 (≈ 0.135 µM)	0.2 (≈ 0.271 µM)	0.2 (≈ 0.271 µM)	6.25 (≈ 8.46 µM)	0.39 (≈ 0.528 µM)	0.39 (≈ 0.528 µM)	–	–	–	–	–	–	–
C=CCO/N=C(\C(=O)NC1C(=O)N2C(C(=O)[O-])=C(CSc3cc[n+](CC)c4cc(N5CCNCC5)c(F)cc34)CS[C@H]12)c1csc(N)n1 (stereo partly shown) [Compound I-29, 7-[(Z)-2-(2-aminothiazol-4-yl)-2-(allyloxyimino)acetamido]-3-(1-ethyl-6-fluoro-7-piperazinylquinolinium-4-yl)thiomethyl-3-cephem-4-carboxylate]	0.78 (≈ 1.09 µM)	0.39 (≈ 0.547 µM)	0.39 (≈ 0.547 µM)	0.39 (≈ 0.547 µM)	1.56 (≈ 2.19 µM)	0.78 (≈ 1.09 µM)	3.13 (≈ 4.39 µM)	–	–	–	–	–	–	–
C=CCO/N=C(\C(=O)NC1C(=O)N2C(C(=O)[O-])=C(CSc3cc[n+](CC)c4cc(N5CCN(C)CC5)c(F)cc34)CSC12)c1csc(N)n1 (stereo not shown) [Compound I-30, 7-[(Z)-2-(2-aminothiazol-4-yl)-2-(allyloxyimino)acetamido]-3-[1-ethyl-6-fluoro-7-(N-methylpiperazinyl)quinolinium-4-yl]thiomethyl-3-cephem-4-carboxylate]	0.78 (≈ 1.07 µM)	0.39 (≈ 0.537 µM)	0.78 (≈ 1.07 µM)	0.39 (≈ 0.537 µM)	3.13 (≈ 4.31 µM)	1.56 (≈ 2.15 µM)	6.25 (≈ 8.6 µM)	–	–	–	–	–	–	–
C=CCO/N=C(\C(=O)NC1C(=O)N2C(C(=O)[O-])=C(CSc3cc[n+](CC)c4cc(N5CCN(CC)CC5)c(F)cc34)CSC12)c1csc(N)n1 (stereo not shown) [Compound I-31]	0.78 (≈ 1.05 µM)	0.2 (≈ 0.27 µM)	0.39 (≈ 0.526 µM)	0.39 (≈ 0.526 µM)	0.78 (≈ 1.05 µM)	0.39 (≈ 0.526 µM)	0.78 (≈ 1.05 µM)	–	–	–	–	–	–	–

The next lines start with the values.

MIC [1] [µg/mL]	MIC [2] [µg/mL]	MIC [3] [µg/mL]	MIC [4] [µg/mL]	MIC [5] [µg/mL]	MIC [6] [µg/mL]	MIC [7] [µg/mL]	Antibacterial Activity (MIC) ([1]; Muller Hinton Broth) [µg/mL]	Antibacterial Activity (MIC) ([2]; Muller Hinton Broth) [µg/mL]	Antibacterial Activity (MIC) ([3]; Muller Hinton Broth) [µg/mL]	Antibacterial Activity (MIC) ([4]; Muller Hinton Broth) [µg/mL]	Antibacterial Activity (MIC) [5] [µg/mL]	Antibacterial Activity (MIC) ([6]; Muller Hinton Broth) [µg/mL]	Antibacterial Activity (MIC) ([7]; Muller Hinton Broth) [µg/mL]	SMILES
–	–	–	–	–	–	–	0.1	0.2	0.2	0.1	1.56	0.1	0.78	C=CCO/N=C(\C(=O)NC1C(=O)N2C(C(=O)[O-])=C(CSc3cc[n+](C)c4cc(N5CCNCC5C)c(F)cc34)CS[C@H]12)c1csc(N)n1 (stereo partly shown) [Compound I-24, 7-[(Z)-2-(2-aminothiazol-4-yl)-2-(allyloxyimino)acetamido]-3-[1-methyl-6-fluoro-7-(2-methylpiperazinyl)quinolinium-4-yl]thiomethyl-3-cephem-4-carboxylate]
0.78 (≈ 1.08 µM)	0.2 (≈ 0.276 µM)	0.39 (≈ 0.538 µM)	0.2 (≈ 0.276 µM)	6.25 (≈ 8.62 µM)	0.78 (≈ 1.08 µM)	0.39 (≈ 0.538 µM)	–	–	–	–	–	–	–	C=CCO/N=C(\C(=O)NC1C(=O)N2C(C(=O)[O-])=C(CSc3cc[n+](C4CC4)c4cc(N5CCNCC5)c(F)cc34)CS[C@H]12)c1csc(N)n1 (stereo partly shown) [Compound I-25, 7-[(Z)-2-(2-aminothiazol-4-yl)-2-(allyloxyimino)acetamido]-3-(1-cyclopropyl-6-fluoro-7-piperazinylquinolinium-4-yl)thiomethyl-3-cephem-4-carboxylate]

— patent US5663331A, “Cephalosporin compounds” (Il-Dong Pharm. Co., Ltd., priority 1992, dated 1997)
